This is an account of results in patent publication US9968541B2, “Optical treatment methods” (ON Light Sciences Inc., priority 2011, dated 2018).

Series [1] has as its system cavitation-induced whitening immediately after laser treatment of tattoos. In words: Pilot study: topical perfluorodecalin by cotton swab prior to each laser pass in tattoo removal. It is filed as in vivo, patients. On the procedure:
Results of a pilot study related to the disclosure will be first released publicly in April 2012. The pilot study included tattoo removal with repeated laser exposures in one session, in which the need for 20-minute treatment intervals was eliminated. The pilot study was conducted at the Laser & Skin Surgery Center of New York (New York, N.Y.), under the direction of Roy G. Geronemus MD. […] A treatment delay of twenty minutes for resolution of whitening limited practicality of the technique, requiring up to eighty minutes of treatment time per visit. Medical grade, sterile perfluorodecalin, an inert, non-toxic liquid fluorocarbon with properties including optical clarity and gas-carrying capacity, was evaluated in the pilot study in an effort to speed resolution of cavitation-induced whitening immediately after laser treatment of tattoos. Perfluorodecalin may increase the optical penetration of lasers. The pilot study was performed in consenting patients with unwanted tattoos. Each tattoo was treated in whole or part with topical perfluorodecalin by cotton swab prior to each laser pass. Lasers and settings were selected by a dermatologist. During and after treatments, extent and duration of whitening reaction was assessed as well as appearance of adverse effects, including pigmentary change or scarring. […] In fifteen tattoos, perfluorodecalin was applied prior to each laser pass and the tattoo was treated with three Q-switched ruby laser passes immediately following one another in a single session. In five tattoos, a portion was treated with perfluorodecalin prior to a single pass of Q-switched ruby or Nd:YAG laser. […] After each laser pass, the whitening reaction resolved within five seconds of perfluorodecalin application. All treatments were well-tolerated with local anesthesia.

For series [2] the following is noted: as described by Tsai; cited from earlier work.
For series [3] the following is noted: cited from earlier work.

Entries after “also recorded” stand apart in the source; their conditions may differ.

Take `FC1(F)C(F)(F)C(F)(F)C2(F)C(F)(F)C(F)(F)C(F)(F)C(F)(F)C2(F)C1(F)F` (stereo not drawn) [perfluorodecalin]: in series [1] (after each laser pass, Q-switched ruby or Nd:YAG laser, topical by cotton swab, patients' tattoos), the “time for whitening reaction to resolve after perfluorodecalin application” value is “five”. The “adverse effects (including pigmentary change or scarring)” value in series [1] (follow-up at 3-6 weeks) is “no adverse effects occurred”. The “healing (amount of blistering, crusting or other changes) compared with previous treatments” value in series [1] (subject-reported) is “normal to improved healing”. The “resolution of post-laser whitening” value in series [1] (topical application with cotton swab, laser therapy of tattoos) was “effectively resolve whitening in laser therapy within seconds; also recorded: resolves post-laser whitening within seconds”. Also, the “treatment time for multiple passes in a single session” value in series [1] (up to four passes in a single session, compared to about 80 minutes with R20) was “about 5 minutes”. Besides, the tolerability of treatments entry in series [1] (with local anesthesia, perfluorodecalin prior to each laser pass) is “well-tolerated”. Also, the toxicity result in series [2] is reported as “non-toxic”. The solubility in water result in series [3] (as described by Tsai) is recorded as “very low solubility in water”. In series [3] (generally regarded), the “thermal stability (stable up to)” value was “about 400 °C”.
